Tests used:
Type in all cases: cell-based
[1] = system: U-2 OS cells; experiment: Sister chromatid exchange (SCE) assay in U-2 OS; details: topotecan 2 μg/mL 1 hr
Protocol: For the SCE assay, 20-25% confluent cells were cultured in fresh media supplemented with 7.5 μM […] (BrdU) and 2.5 μM BrdC (BrdU:BrdC 3:1 ratio; Sigma-Aldrich) for 32-48 hours depending on the mitotic index of the cell line. Cell cultures were treated with 100 ng/mL colcemid for the last 4 hours of incubation to accumulate mitotic cells. Cells were harvested by trypsinisation and centrifugation, and then incubated in hypotonic buffer for 10 minutes at 37° C. Swollen cells were fixed by gradually adding 1 mL of fresh ice-cold fixative (methanol/acetic acid 3:1), mixing by inversion and incubating on ice for 5 minutes. Cells were then collected by centrifugation at 1200 rpm for 8 minutes. 10 mL ice cold fixative was added to resuspend the cells followed by 5 minutes incubation on ice and centrifugation at 1200 rpm for 8 minutes. This fixing step was repeated another two times. Fixed cells were then resuspended in 500-1000 μL of ice-cold fixative, and dropped onto clean, dry microscope slides (HDS Surefrost, 50-100 μL cell solution per slide). To drop chromosomes, a clean dry slide was held over a 75° C. water bath, and the cell solution was dropped from a pipette onto the slide, which was quickly flipped and held close to the surface of the water bath for 5 seconds. […]

[2] = system: U-2 OS cells; experiment: Comet assay (tail moment)
Protocol: Comet assays were performed using the CometAssay® kit (Trevigen) according to the manufacturer's protocol with minor modifications. Briefly, cells were counted and resuspended in PBS. 20 μl of cells at 1×10^5/mL were combined with molten LMAgarose (Trevigen) at 37° C. The cell mixture was pipetted onto the sample area of a prewarmed slide (CometSlide™, Trevigen). Slides were cooled at 4° C. in the dark for 25 minutes, and then immersed in ice-cold lysis solution (CometAssay® kit, Trevigen) at 4° C. overnight. On the following day, slides were removed from lysis solution and gently immersed in ice-cold 1× neutral electrophoresis buffer ([…]) for 30 minutes. Slides were then electrophoresed in 1× neutral electrophoresis buffer ([…]) for 45 minutes at 1 V/cm. Following electrophoresis, slides were immersed in DNA precipitation solution (1 M ammonium acetate in 95% ethanol) for 30 minutes at room temperature. Slides were then transferred and immersed in 70% ethanol for 30 minutes at room temperature. Slides were then dried for 15 minutes at 37° C., incubated with 1 μM YOYO stain (Invitrogen) for 5 minutes, and Prolong Gold Antifade (Invitrogen) and stored at 4° C. until microscope analysis.

[3] = system: U-2 OS cells; experiment: Topotecan dose-response of cell proliferation after siRNA transfection (IncuCyte); details: topotecan 0.0039-1 μg/mL, 180 hours, compared to scrambled control
Protocol: U-2 OS cells were plated in a 96-well plate at 4000 cells per well. 24 hours following plating, cells were transfected with either scrambled or ZNF827 siRNAs (Table 2) using Lipofectamine RNAiMAX transfection reagent (ThermoFisher Scientific). 24 hours post siRNA transfection, cells were treated with topotecan at a range of concentrations including 0.0039, 0.0078, 0.0156, 0.03125, 0.0625, 0.125, 0.25, 0.5 and 1 μg/mL in triplicates. DMSO was used as untreated control. Immediately after treatment addition, cells were imaged using the IncuCyte® live cell imaging system at 2-hour intervals for 180 hours. Cell proliferation was measured by phase object confluence calculated by the IncuCyte® analysis software. For IC50s, cell proliferation data were analysed in GraphPad Prism 8 to obtain area under curve (AUC), followed by normalisation and non-linear regression using the log(inhibitor) vs. normalised response -variable slope' function.

Compound	sister chromatid exchanges (SCEs) [1]	DNA damage measured as tail moment ([2]; 72 hr siRNA knockdown alone (DMSO))	DNA damage measured as tail moment ([2]; 72 hr siRNA knockdown in conjunction with topotecan 2 μg/mL 24 hr)	sensitivity to topotecan treatment (cell proliferation dose-response) [3]
CC[C@@]1(O)C(=O)OCc2c1cc1n(c2=O)Cc2cc3c(CN(C)C)c(O)ccc3nc2-1 [topotecan]	drastic induction of SCEs			
siZNF827: Stealth RNAi siRNA ZNF827HSS135819 duplex oligoribonucleotides (Invitrogen), SEQ ID NO: 12 and 13 (chain 1 GGGCAGUCUUCUGGCUGAGAAAUCA; chain 2 UGAUUUCUCAGCCAGAAGACUGCCC; listed as RNA, further chemistry not given here)		caused DNA damage measured as tail moment to a similar extent as topotecan treatment	further increased the amount of DNA damage	markedly increased sensitivity to topotecan treatment
